Test results: PubChem BioAssay (NCI)
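Each compound was tested at five concentrations against cells in 96-well plates for 48 hours. GI50 = concentration required for 50% inhibition of growth. TGI is the concentration that stops growth completely.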

Assays:
Experiment in all cases: NCI tumour cell line growth inhibition, 48 h
[1] = tested on: 786-0 renal
[2] = tested on: A549 NSCLC
[3] = tested on: ACHN renal
[4] = tested on: BT-549 breast
[5] = tested on: CAKI-1 renal
[6] = tested on: CCRF-CEM leukemia
[7] = tested on: COLO 205 colon
[8] = tested on: DU-145 prostate
[9] = tested on: EKVX NSCLC
[10] = tested on: HCT-116 colon
[11] = tested on: HCT-15 colon
[12] = tested on: HOP-62 NSCLC
[13] = tested on: HOP-92 NSCLC
[14] = tested on: HS 578T breast
[15] = tested on: HT29 colon
[16] = tested on: IGROV1 ovarian
[17] = tested on: K-562 leukemia
[18] = tested on: KM12 colon
[19] = tested on: LOX IMVI melanoma
[20] = tested on: M14 melanoma
[21] = tested on: MALME-3M melanoma
[22] = tested on: MCF7 breast
[23] = tested on: MDA-MB-231 breast
[24] = tested on: MDA-MB-435
[25] = tested on: MOLT-4 leukemia
[26] = tested on: NCI-H226 lung
[27] = tested on: NCI-H23 lung
[28] = tested on: NCI-H460 lung
[29] = tested on: NCI-H522 lung
[30] = tested on: NCI/ADR-RES ovarian
[31] = tested on: OVCAR-3 ovarian
[32] = tested on: OVCAR-4 ovarian
[33] = tested on: OVCAR-5 ovarian
[34] = tested on: OVCAR-8 ovarian
[35] = tested on: PC-3 prostate
[36] = tested on: RPMI-8226 leukemia
[37] = tested on: RXF 393 renal
[38] = tested on: SF-268 CNS
[39] = tested on: SF-295 CNS
[40] = tested on: SK-MEL-2 melanoma
[41] = tested on: SK-MEL-28 melanoma
[42] = tested on: SK-MEL-5 melanoma
[43] = tested on: SK-OV-3 ovarian
[44] = tested on: SN12C renal
[45] = tested on: SNB-19 CNS
[46] = tested on: SR leukemia
[47] = tested on: SW-620 colon
[48] = tested on: T-47D breast
[49] = tested on: TK-10 renal
[50] = tested on: U251 CNS
[51] = tested on: UACC-62 melanoma
[52] = tested on: UO-31 renal

## O=C1C(Cl)=C(Nc2cccc(O)c2)C(=O)N1CCc1ccccc1
[1]
  GI50: 19.2 µM
  TGI: 36.6 µM
[2]
  GI50: 20.6 µM
  TGI: 46.4 µM
[3]
  GI50: 22.9 µM
  TGI: 47.5 µM
[4]
  GI50: 17.9 µM
  TGI: 47.1 µM
[5]
  GI50: 22.5 µM
  TGI: 56.3 µM
[6]
  GI50: 12.6 µM
  TGI: 69.4 µM
[7]
  GI50: 33.2 µM
  TGI: > 100 µM
[8]
  GI50: 15.3 µM
  TGI: 32.5 µM
[9]
  GI50: 19.3 µM
  TGI: 40.9 µM
[10]
  GI50: 24.3 µM
  TGI: 73.3 µM
[11]
  GI50: 22.4 µM
  TGI: 57.8 µM
[12]
  GI50: 19.2 µM
  TGI: 38.4 µM
[13]
  GI50: 15.9 µM
  TGI: 36.4 µM
[14]
  GI50: 17.5 µM
  TGI: 40.5 µM
[15]
  GI50: 24.3 µM
  TGI: 82.5 µM
[16]
  GI50: 15 µM
  TGI: 35.4 µM
[17]
  GI50: 16.8 µM
  TGI: 63.9 µM
[18]
  GI50: 15.5 µM
  TGI: 34 µM
[19]
  GI50: 16.9 µM
  TGI: 39.6 µM
[20]
  GI50: 17.7 µM
  TGI: 37.9 µM
[21]
  GI50: 16.2 µM
  TGI: 33 µM
[22]
  GI50: 14.4 µM
  TGI: 33.6 µM
[23]
  GI50: 23.3 µM
  TGI: 44.4 µM
[24]
  GI50: 15.7 µM
  TGI: 37.1 µM
[25]
  GI50: 9.4 µM
  TGI: 59 µM
[26]
  GI50: 22 µM
  TGI: 45.6 µM
[27]
  GI50: 17.7 µM
  TGI: 36.4 µM
[28]
  GI50: 18 µM
  TGI: 39.8 µM
[29]
  GI50: 13.2 µM
  TGI: 29.2 µM
[30]
  GI50: 20.1 µM
  TGI: 49 µM
[31]
  GI50: 15.4 µM
  TGI: 34.3 µM
[32]
  GI50: 20.1 µM
  TGI: 55.3 µM
[33]
  GI50: 20.7 µM
  TGI: 46.8 µM
[34]
  GI50: 21.5 µM
  TGI: 51.1 µM
[35]
  GI50: 22.3 µM
  TGI: 62.7 µM
[36]
  GI50: 5.03 µM
  TGI: 37.6 µM
[37]
  GI50: 25.9 µM
  TGI: 71.4 µM
[38]
  GI50: 17 µM
  TGI: 42.2 µM
[39]
  GI50: 21.8 µM
  TGI: 46.6 µM
[40]
  GI50: 14.5 µM
  TGI: 33.7 µM
[41]
  GI50: 19.8 µM
  TGI: 40.8 µM
[42]
  GI50: 20.2 µM
  TGI: 38 µM
[43]
  GI50: 32.1 µM
  TGI: > 100 µM
[44]
  GI50: 16 µM
  TGI: 32.6 µM
[45]
  GI50: 22.6 µM
  TGI: 49.4 µM
[46]
  GI50: 4.61 µM
  TGI: 64.3 µM
[47]
  GI50: 30.9 µM
  TGI: 77.5 µM
[48]
  GI50: 40.5 µM
  TGI: > 100 µM
[49]
  GI50: 23.1 µM
  TGI: 48.4 µM
[50]
  GI50: 19.1 µM
  TGI: 42.1 µM
[51]
  GI50: 13.9 µM
  TGI: 29.1 µM
[52]
  GI50: 16.7 µM
  TGI: 36.8 µM
